Reference: article PMC7671190 (Journal of medicinal chemistry, 2020)
Read-outs that look alike come from different tables or passages of the source.

How the values were obtained:
[1] = system: HIV/EBOV-GP pseudotype virus; test: organism not typed; type: cell-based, Ebola virus (EBOV)
[2] = system: Wild type Ebola virus (1976 Mayinga variant); type: cell-based, Ebola virus (EBOV)
[3] = system: wild type MARV (Lake Victoria, 2005 Angola); test: organism not typed; type: cell-based, Marburg virus (MARV); details: Vero, read-out: MARV EC50, Vero cells
CYP3A4 = CYP3A4 (Homo sapiens, UniProt P08684)
CYP2C9 = CYP2C9 (Homo sapiens, UniProt P11712)
[4] = A549, read-out: EC50, Ebola pseudovirus (in nM)

Sequence of CYP2C9 (P11712 whole entry): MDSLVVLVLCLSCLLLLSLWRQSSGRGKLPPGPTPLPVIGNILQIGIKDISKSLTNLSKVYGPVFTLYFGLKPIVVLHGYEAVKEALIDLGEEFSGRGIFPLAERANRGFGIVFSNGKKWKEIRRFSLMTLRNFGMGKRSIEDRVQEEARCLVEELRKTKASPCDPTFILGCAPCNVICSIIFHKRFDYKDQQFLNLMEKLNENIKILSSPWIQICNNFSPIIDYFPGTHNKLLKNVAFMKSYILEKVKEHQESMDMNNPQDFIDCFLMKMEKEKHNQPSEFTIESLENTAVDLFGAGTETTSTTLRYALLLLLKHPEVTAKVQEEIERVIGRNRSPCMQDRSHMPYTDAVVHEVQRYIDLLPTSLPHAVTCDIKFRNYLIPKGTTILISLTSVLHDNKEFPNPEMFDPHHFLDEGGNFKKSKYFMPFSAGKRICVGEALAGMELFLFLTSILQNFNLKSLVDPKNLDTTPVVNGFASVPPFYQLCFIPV
Sequence of CYP3A4 (P08684 whole entry): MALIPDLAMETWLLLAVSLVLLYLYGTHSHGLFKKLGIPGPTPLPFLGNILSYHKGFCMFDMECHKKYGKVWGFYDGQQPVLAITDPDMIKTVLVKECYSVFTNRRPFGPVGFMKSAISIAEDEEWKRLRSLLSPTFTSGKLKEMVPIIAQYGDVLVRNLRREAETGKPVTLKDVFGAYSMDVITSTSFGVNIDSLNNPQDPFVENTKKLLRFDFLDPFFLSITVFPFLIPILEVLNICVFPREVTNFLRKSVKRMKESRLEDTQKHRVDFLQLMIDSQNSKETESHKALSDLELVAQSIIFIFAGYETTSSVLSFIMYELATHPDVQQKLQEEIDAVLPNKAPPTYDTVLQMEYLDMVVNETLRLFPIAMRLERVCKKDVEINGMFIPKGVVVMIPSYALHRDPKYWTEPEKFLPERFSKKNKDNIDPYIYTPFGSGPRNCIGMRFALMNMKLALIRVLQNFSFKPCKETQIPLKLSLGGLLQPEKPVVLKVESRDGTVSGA

O=C(Nc1ccc(N2CCC(F)(F)CC2)cc1)c1ccc(CN2CCCCC2)cc1 [Compound 34, N-(4-(4,4-Difluoropiperidin-1-yl)phenyl)-4-(piperidin-1-ylmethyl)benzamide]
EC50 ([1]; A549, read-out: Ebola pseudovirus A549 cells EC50): < 1000 nM

COC(=O)c1ccc(NC(=O)c2ccc(CN3CCCCC3)cc2)cc1 [Compound 5, Methyl 4-(4-(piperidin-1-ylmethyl)benzamido)benzoate]
EBOV (HeLa) EC50 [2]: inactive
EC50 [3]: < 10000 nM

O=C(Nc1ccc(C23CC4CC(CC(C4)C2)C3)cc1)c1ccc(CN2CCOCC2)cc1 [Compound 33, N-(4-((1R,3R,5S)-Adamantan-1-yl)phenyl)-4-(morpholinomethyl)benzamide]
EC50 [1, 4]: < 100 nM

O=C(NCCC1CCCCC1)c1ccc(CN2CCCCC2)cc1 [Compound 28, N-(2-Cyclohexylethyl)-4-(piperidin-1-ylmethyl)benzamide]
Drop in potency on replacing the aniline aromatic ring with a two-carbon linker [1]: 2.3 fold

O=C(Nc1ccc(C23CC4CC(CC(C4)C2)C3)cc1)c1ccc(CN2CCCCC2)cc1 [Compound 32, N-(4-((1R,3R,5S)-adamantan-1-yl)phenyl)-4-(piperidin-1-ylmethyl)benzamide]
EC50 [1, 4]: < 100 nM
CYP450 inhibition CYP3A4 IC50 (CYP3A4): did not inhibit
CYP450 inhibition CYP2C9 IC50 (CYP2C9): did not inhibit

COC(=O)c1ccc(NC(=O)c2ccc(CN3CCN(C)CC3)cc2)cc1 [Compound 7, Methyl 4-(4-((4-methylpiperazin-1-yl)methyl)benzamido)benzoate]
inhibition at 12.5 µM ([1]; A549, read-out: Ebola pseudovirus A549 cells % inhibition): 29%
